Experimental data as given in patent US8604220B2, “Isolation of Simalikalactone E and use thereof as a medicament, in the treatment of malaria” (priority 2009, dated 2013).

What was measured:
P. vinckei petteri = test: Antimalarial activity in vivo, mice infected with P. vinckei petteri (Peters test); design: species or system Plasmodium vinckei petteri; details: for ED50, dose inhibiting 50% of the growth of P. vinckei petteri: mice, 4 days; for survival of the mice compared with chloroquine: IP route
Protocol: The antimalarial activity of SkE was evaluated on female Swiss mice (22 g±2) infected with P. vinckei petteri. Before infection of the mice having been used for the test, the parasites were thawed, injected and maintained by passaging in two batches of mice. The parasitized blood was taken from the retro-orbital sinus and each mouse of the study was infected with 2×10^7 parasites intraperitoneally. The infected animals were divided up into batches of 5 per cage and were treated intraperitoneally each day for 4 days. The SkE was tested at 4 concentrations prepared in 90% DMSO (intraperitoneal route) or carboxymethylcellulose (oral route) in such a way that each mouse receives 200 μl of preparation. The experiment included control parasitized mice receiving 200 μl of 90% DMSO or CMC alone orally, and 3 batches of 5 mice, each of these batches being treated with solutions of chloroquine at 1, 5 and 10 mg/kg diluted in PBS (IP).
At the end of the treatment (5 d after the infection), a blood smear was performed from a drop of blood originating from the tail of each mouse, fixed with methanol and stained with Giemsa. The slides were examined under a microscope and the parasitemia counted for 10 000 red blood cells.
The survival of the mice was monitored for 21 days.

[1] = tested on: liver stages of Plasmodium yoelii; test: In vitro activity against liver stages of P. yoelii in mouse primary hepatocytes; assay type: cell-based; details: for IC50: Plasmodium yoelii, Hepatocyte, liver stages, 48 hours, SkE mean of three experiments, read-out: IC50 on murine hepatocytes infected with P. yoelii
Protocol: (§1) The in vitro activity of SkE against the pre-erythrocytic stages was tested on different Plasmodium species. […] The in vitro assays were carried out using cultures of human primary hepatocytes (HH) or mouse primary hepatocytes (MH), respectively. The primary cells were isolated by collagenase perfusion of pieces of liver (obtained from humans or from female Swiss mice, respectively), followed by purification of the separated cells on a percoll gradient. The hepatocytes were seeded into 96-well microplates (35 000 MH/well and 82 500 HH/well) and maintained in culture at 37° C. and 5% CO2 in a William medium supplemented with 10% FCS (Hyclone), 100 U/ml of penicillin, […] of streptomycin, 2 mM of glutamine, 5 μg/ml of insulin and 5×10^−7 M of hydrocortisone hemisuccinate. A stock solution of SkE was prepared in DMSO at 200 mg/ml, and then diluted in complete medium described above so as to obtain the desired concentrations. The hepatocytes were infected with P. yoelii sporozoites (30 000) or P. falciparum sporozoites (40 000). The SkE compound was added simultaneously with sporozoites at various concentrations. The culture medium was then replaced 3 h after the inoculation of the sporozoites, and then every day. The cultures were fixed 48 hours after the infection for P. yoelii, and 5 days after infection for P. falciparum. The inhibitory effect of the compound was quantified, after fluorescent immunolabeling of the liver schizonts with a mouse serum directed against PfHSP70, by fluorescence microscopy analysis.

[2] = tested on: liver stages of Plasmodium falciparum; test: In vitro activity against liver stages of P. falciparum in human primary hepatocytes; assay type: cell-based; details: for therapeutic index TI=TC50/IC50: P. falciparum liver stages, human hepatocytes; for IC50: Plasmodium falciparum, Hepatocyte, 120 h, human primary hepatocytes, 5 days, SkE mean of two experiments
Protocol: as §1

[3] = In vitro cytotoxicity on primary rodent hepatocytes, MTT assay; assay type: cell-based, mouse; details: Swiss, mouse, primary hepatocytes; one of the 3 experiments carried out; read-out: cytotoxicity IC50 on murine hepatocytes
Protocol: (§2) In parallel, the cytotoxicity of the compound was evaluated on human and rodent hepatocytes treated under the same conditions as in the assays for activity of the test compound, by means of the MTT (tetrazolium) colorimetric assay (Mosmann et al., 1983). After incubation of the primary rodent or human hepatocytes for 2 days or 5 days, respectively, with the various concentrations of the test compound, 100 μl of MTT solution ([…]) were added to each well. The plates were then incubated for 4 hours at 37° C. The formazan crystals were then dissolved in 100 μl of DMSO-ethanol mixture (V/V). The optical density was measured by spectrophotometry at 540 nm. The results are expressed as percentage cell viability relative to the untreated control.

[4] = tested on: primary rodent hepatocytes; test: as above; assay type: cell-based, mouse; details: the other two experiments; highest concentration tested 5.54 μM
Protocol: as §2

[5] = tested on: P. falciparum (F32 Tanzania, FcB1 Colombia, W2 Indochina strains); test: Antiplasmodial activity in vitro, tritiated hypoxanthine incorporation; assay type: cell-based; details: Plasmodium falciparum, 48 h, read-out: IC50, inhibits 50% of the growth of P. falciparum in culture
Protocol: The following three strains of Plasmodium falciparum were used: • chloroquine-sensitive F32 Tanzania • chloroquine-resistant FcB1 Colombia • W2 Indochina.
The antimalarial activity of the various products is evaluated by means of the radioactive method using tritiated hypoxanthine, described by Desjardins et al., with the modifications introduced by Benoit et al. (Desjardins R. E. et al., Antimicrob. Agents Chemother, 1979, 16: 710-718; F. Benoit et al. Trans. Roy. Soc. Trop. Med. Hyg. 89: 217-218).
The test is carried out in 96-well culture plates (supplier: TPP, Switzerland) on cultures mainly at the ring stage. The parasites are brought into contact with the products for 48 h at 37° C. and 5% CO2. The growth of the parasite is then estimated by following tritiated hypoxanthine incorporation into the nucleic acids of the parasite. The IC50 values are determined graphically on curves of percentage inhibition of growth as a function of concentration. Thus, the antimalarial activity of SkE was evaluated according to the following protocol. […]
The filter is then placed in a cassette which is placed in the β-counter in order to measure the radioactivity. […]

[6] = Cytotoxicity on Vero cells, tritiated hypoxanthine incorporation; assay type: cell-based, monkey; details: monkey, Vero cells (monkey kidney epithelial cells)
Protocol: (§3) This evaluation is carried out on two cell types, the MCF-7 line, which is a mammary tumor cell line, and Vero cells (monkey kidney cells).
(§4) VERO cells are monkey kidney epithelial cells. They are cultured in the same way as the MCF-7, but in EMEM medium supplemented with 10% FCS, nonessential amino acids, sodium pyruvate, HEPES and glutamine.
(§5) The evaluation of cytotoxicity follows the same method as the antimalarial activity test, but with P. falciparum being replaced with the MCF-7 or VERO cells.
(§6) However, there are a few minor modifications, owing to the different mode of culture. This is because the cells used for the cytotoxicity tests are adherent cells and their growth is slower. Consequently, they are seeded in 96-well plates 24 hours before they are brought into contact with the test products. After 24 h, the cells adhere to the bottom of the well, the medium is changed, and then the test molecules are added, the dilution thereof being carried out in complete medium. The medium used depends on the cells used (DMEM or EMEM).
(§7) In the same way as for the antimalarial activity test, tritiated hypoxanthine is added 24 hours after bringing into contact with the products, and the plate is placed in the freezer 48 hours later. Finally, the radioactivity is measured as for the antimalarial activity test. The evaluation of the IC50 values is carried out graphically as for that of P. falciparum.

Vero cells = test: as above; assay type: cell-based, monkey; details: for toxicity compared with Simalikalactone D: mammalian cell lines (Vero cells)
Protocol: as §3, §4, §5, §6, §7

[7] = Cytotoxicity on THP1 cells; assay type: cell-based; details: human
[8] = Vero cells versus P. falciparum

Compound	ED50, dose inhibiting 50% of the growth of P. vinckei petteri (P. vinckei petteri; intraperitoneally)	IC50 [1]	therapeutic index TI=TC50/IC50 [2]	IC50 [2]	survival of the mice compared with chloroquine (P. vinckei petteri; all doses, p<0.05)	survival of the mice compared with chloroquine (P. vinckei petteri; dose of 1 mg/kg/d)	mean survival time of the mice (P. vinckei petteri; ip at 1 mg/kg/day, monitored for 3 weeks, one experiment)	ED50, dose inhibiting 50% of the growth of P. vinckei petteri (P. vinckei petteri; orally)	IC50 at 2 days [3]	cytotoxicity on murine hepatocytes at highest concentration tested [4]	IC50 [5]	activity relative to primaquine on P. yoelii liver stages ([1]; fold more active than primaquine, same conditions)	IC50 at 72 h [6]	IC50 (Vero cells; Primates, Vero cells, read-out: inhibits 50% of the growth of Vero mammalian cells)	selectivity index (Vero cells; [8])	selectivity index with respect to P. falciparum compared with SkD (Vero cells; [8])	toxicity compared with Simalikalactone D (Vero cells)	toxicity compared with Simalikalactone D (Vero cells; listed as Simalikalactone E)	IC50 [7]
CCN(CC)CCCC(C)Nc1ccnc2cc(Cl)ccc12 (centres unmarked) [chloroquine, reference compound]	3 mg/kg/day	–	–	–	–	–	–	–	–	–	–	–	–	–	–	–	–	–	–
COc1cc(NC(C)CCCN)c2ncccc2c1 (centres unmarked) [primaquine, reference compound]	–	640 nM	81	800 nM	–	–	–	–	–	–	–	–	–	–	–	–	–	–	–
CCC(C)C(=O)O[C@@H]1[C@H]2C(C)=CC(=O)[C@@H](O)[C@]2(C)[C@H]2[C@@H](O)[C@H](O)[C@@]3(C)OC[C@@]24[C@@H]1OC(=O)[C@H](OC(=O)C(C)CC)[C@@H]34 (some centres unmarked) [SkE, Simalikalactone E]	0.5 mg/kg/day	186 ± 16 nM	75	1200 ± 190 nM	always better than that of the mice treated with CQ at the doses of 1	equivalent to what is obtained for CQ at 10 mg/kg/d	greater than 18.6 days	1 mg/kg/day	1120 nM	no toxicity was observed	24 to 68 nM	at least 3 times	6000 nM	6570 nM	greater than 100	twice that of SkD	less than that of SkD	less toxicity than Simalikalactone D	33 nM
